Structures are written as SMILES.

For the first assay, the system named is Human primary T cells. The assay can be described thus: IL-2 ELISA, Human Primary T Cell, Anti-CD3+CD28+ (Example 3). Type of assay: cell-based. The following applies: Homo sapiens, T-cell, 24 h, anti-CD3+CD28 stimulation. The essentials:
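Human primary T cells, 100,000 per well, were pre-incubated with compound in Yssel's medium for 1 h at 37 °C. The counter-assay used 0.5 ng/ml PMA with 0.1 uM ionomycin final.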
For orientation: IC50 means the concentration that gives 50% inhibition. High values mean lower potency, low ones higher potency. Compound `CN1C(=O)C(F)(F)Oc2cc(Nc3ncc(F)c(NC4CC(C)(C)N(C)C(C)(C)C4)n3)cnc21` [II-26] had an IC50 of 951 nM. Compound `CCn1c(=O)oc2ccc(Nc3ncc(F)c(NC4CC(C)(C)N(C)C(C)(C)C4)n3)cc21` [II-173] came in with an IC50 of 1320 nM. Regarding `CN1CCN(C(=O)C2COc3cc(Nc4ncc(F)c(NC5CC(C)(C)NC(C)(C)C5)n4)ccc3O2)CC1` (stereo not drawn) [II-160], the IC50 was found to be 17900 nM. Take `CN1C(C)(C)CC(Nc2nc(Nc3ccc4c(c3)OC3(CCCC3)O4)ncc2F)CC1(C)C` [II-113]: 2170 nM corresponded to half-maximal inhibition (IC50).

Compound `CN1CCc2cc(Nc3ncc(F)c(NC4CC(C)(C)N(C)C(C)(C)C4)n3)ccc21` [II-51] showed an IC50 of 4880 nM.

In turn, `CN1C(C)(C)CC(Nc2nc(Nc3ccc4c(c3)OCC(=O)N4CCF)ncc2F)CC1(C)C` [II-82] had an IC50 of 291 nM. Same read-out and setting: to `CCCN1C(=O)C(C)(C)Oc2cc(Nc3ncc(F)c(NC4CC(C)(C)N(C)C(C)(C)C4)n3)ccc21` [II-48] belongs 263 nM. The compound `CC1(C)CC(Nc2nc(Nc3ccc4c(c3)oc(=O)n4CCN3CCOCC3)ncc2F)CC(C)(C)N1` [II-168] gave an IC50 of 5600 nM. Consider `Cc1nc2cc(Nc3ncc(F)c(NC4CC(C)(C)N(C)C(C)(C)C4)n3)ccc2o1` [II-30], for which the midpoint of inhibition, the IC50, lay at 11100 nM.

In the case of `CC1(C)CC(Nc2nc(Nc3ccc4c(c3)OC3(CCCCC3)O4)ncc2F)CC(C)(C)N1` [II-121], the IC50 amounted to 1810 nM. The compound `CC1(C)CC(Nc2nc(Nc3ccc4c(c3)OC(C)(C)O4)ncc2F)CC(C)(C)N1` [II-102] yielded an IC50 of 5220 nM. Turning to `C#Cc1cnc(Nc2ccc3c(c2)OCCO3)nc1NC1CC(C)(C)N(C)C(C)(C)C1` [II-156], half-maximal inhibition (IC50) required 5930 nM. Compound `Cc1nc2ccc(Nc3ncc(F)c(NC4CC(C)(C)N(C)C(C)(C)C4)n3)cc2[nH]1` [II-9] gave an IC50 of 12300 nM.

`COc1ccc(Nc2ncc(F)c(N(Cc3ccc4ccccc4n3)C3CC(C)(C)N(C)C(C)(C)C3)n2)cc1OC(F)F` [Compound I-321]: the midpoint of inhibition, the IC50, lay at 5950 nM. Compound `CN1C(C)(C)CC(Nc2nc(Nc3ccc4c(c3)oc(=O)n4CCN3CCOCC3)ncc2F)CC1(C)C` [II-167] had an IC50 of 2180 nM. In turn, `COc1cc(Nc2ncc(F)c(NC3CC(C)(C)N(CCC(=O)O)C(C)(C)C3)n2)cc(OC)c1` [Compound I-302] showed an IC50 of 25100 nM. `CC(C)N1CCc2cc(Nc3ncc(F)c(NC4CC(C)(C)N(C)C(C)(C)C4)n3)ccc21` [II-53] displayed an IC50 of 4740 nM.

The compound `CN1C(C)(C)CC(Nc2nc(Nc3ccc(-c4ccc(N5CCOCC5)nc4)c(C#N)c3)ncc2F)CC1(C)C` [Compound I-427] displayed an IC50 of 660 nM. `Cc1cnc(Nc2ccc3c(c2)OCCO3)nc1NC1CC(C)(C)N(C)C(C)(C)C1` [II-146] gave an IC50 of 3130 nM. The same measure, in the same setting: under `CCCN1C(=O)COc2cc(Nc3ncc(C#N)c(NC4CC(C)(C)N(C)C(C)(C)C4)n3)ccc21` [II-72] stands 168 nM. On the same count and under the same terms, under `CN1C(C)(C)CC(Nc2nc(Nc3cccc(OC(F)(F)F)c3)ncc2Cl)CC1(C)C` [Compound I-240] stands 683 nM. As to `CC(C)N1C(=O)COc2cc(Nc3ncc(F)c(NC4CC(C)(C)N(C)C(C)(C)C4)n3)ccc21` [II-61], the IC50 was found to be 168 nM. The compound `CCN1CCc2cc(Nc3ncc(F)c(NC4CC(C)(C)N(C)C(C)(C)C4)n3)ccc21` [II-52] had an IC50 of 5610 nM. `CN1C(C)(C)CC(Nc2nc(Nc3nc(-c4ccc(N5CCCC5)cc4)cs3)ncc2F)CC1(C)C` [II-133]: the half-inhibitory concentration (IC50) is 2220 nM.

Compound `COc1cc(Nc2ncc(F)c(NC3CC(C)(C)NC(C)(C)C3)n2)cc(OCCN2CCCC2)c1` [Compound I-435] yielded an IC50 of 550 nM.

`CC(C)n1c(=O)oc2cc(Nc3ncc(C#N)c(NC4CC(C)(C)N(C)C(C)(C)C4)n3)ccc21` [II-70] came in with an IC50 of 327 nM. Same read-out and setting: to `CN1C(C)(C)CC(Nc2nc(Nc3cc4c(cc3Cl)OCCO4)ncc2F)CC1(C)C` [II-116] belongs 1470 nM. As for `CN1C(C)(C)CC(Nc2nc(Nc3ccc4c(c3)OC(C)(C)O4)ncc2F)CC1(C)C` [II-103], the IC50 was 3690 nM. The same measure, in the same setting: under `CN1C(C)(C)CC(Nc2nc(Nc3ccc4c(cnn4C)c3)ncc2F)CC1(C)C` [II-39] stands 967 nM.

The same assay, now with this note: anti-CD3+CD28 stimulation, 24 hours.
`CN1CCN(c2ccc(Nc3ncc([N+](=O)[O-])c(NC4CC(C)(C)N(C)C(C)(C)C4)n3)cc2C(F)(F)F)CC1` [Compound I-74] came in with an IC50 of 657 nM. For `COc1cc(Nc2ncc(F)c(NC3CC(C)(C)N(C)C(C)(C)C3)n2)ccc1N1CCN(C)CC1` [Compound I-55], inhibition was half-maximal at 1570 nM (IC50). On to `CN1C(C)(C)CC(Nc2nc(Nc3ccc(Cl)c(N4CCN(S(C)(=O)=O)CC4)c3)ncc2F)CC1(C)C` [Compound I-68], for which the IC50 is 589 nM. In the case of `CN1C(C)(C)CC(Nc2nc(Nc3cccc(OC(F)(F)F)c3)ncc2Br)CC1(C)C` [Compound I-275], the midpoint of inhibition, the IC50, lay at 617 nM. `CN1C(C)(C)CC(Nc2nc(Nc3ccc(N4CCSCC4)c(C(F)(F)F)c3)ncc2F)CC1(C)C` [Compound I-331] registered an IC50 of 806 nM. Still for that read-out and setting: to `COc1ccc(Nc2ncc(F)c(NC3CC(C)(C)N(C)C(C)(C)C3)n2)cc1OCC(F)(F)F` [Compound I-401] belongs 3160 nM. Consider `Cc1ccc(Nc2ncc(F)c(NC3CC(C)(C)N(C)C(C)(C)C3)n2)cc1-c1cc2ccccc2s1` [Compound I-189], for which the IC50 was 1220 nM.

The compound `CCOC(=O)c1cnc(Nc2ccc(N3CCN(C)CC3)c(C(F)(F)F)c2)nc1NC1CC(C)(C)N(C)C(C)(C)C1` [Compound I-82] registered an IC50 of 3210 nM.

Turning to `CN1C(C)(C)CC(Nc2nc(Nc3ccc(N4CCC(F)(F)CC4)c(Cl)c3)ncc2F)CC1(C)C` [Compound I-50], the IC50 was found to be 320 nM.

As to `CN1C(C)(C)CC(Nc2nc(Nc3ccc(-n4cccc4)c(C#N)c3)ncc2C(F)(F)F)CC1(C)C` [Compound I-172], the IC50 is 669 nM. `COc1ccc(Nc2nccc(NC3CC(C)(C)N(C)C(C)(C)C3)n2)cc1Cl` [Compound I-226] displayed an IC50 of 1140 nM. For the compound `COc1cc(Nc2ncc(C(F)(F)F)c(NC3CC(C)(C)N(C)C(C)(C)C3)n2)cc(-n2nnnc2C)c1` [Compound I-370], the concentration for half-maximal inhibition (IC50) amounted to 93.2 nM. On the same count and under the same terms, to `COc1ccc(Nc2ncc(F)c(NC3CC(C)(C)N(C)C(C)(C)C3)n2)cc1OCc1cccnc1` [Compound I-418] belongs 2190 nM.

`CN1CCN(Cc2ccc(Nc3ncc(F)c(NC4CC(C)(C)N(C)C(C)(C)C4)n3)cc2Cl)CC1` [Compound I-57]: the concentration for half-maximal inhibition (IC50) stood at 364 nM. Compound `COc1ccc(Nc2ncc(F)c(NC3CC(C)(C)N(C)C(C)(C)C3)n2)cc1OCc1ccncc1` [Compound I-417] returned an IC50 of 2670 nM. The same measure, in the same setting: under `Cc1ccc(Nc2ncc(C(F)(F)F)c(NC3CC(C)(C)N(C)C(C)(C)C3)n2)cc1C#N` [Compound I-171] stands 680 nM; under `CN1CCN(c2ccc(Nc3ncc(F)c(N(C)C4CC(C)(C)N(C)C(C)(C)C4)n3)cc2C(F)(F)F)CC1` [Compound I-59], 911 nM; under `CCCN1C(=O)C2(CCC2)Oc2cc(Nc3ncc(F)c(NC4CC(C)(C)N(C)C(C)(C)C4)n3)ccc21` [II-166], 440 nM. Still for that read-out and setting: under `CN1C(C)(C)CC(Nc2nc(Nc3ccc(O)cc3)ncc2F)CC1(C)C` [Compound I-252] stands 10200 nM; under `CN1C(C)(C)CC(Nc2nc(Nc3ccc(Br)cc3)ncc2F)CC1(C)C` [Compound I-108], 1150 nM; under `CN1C(C)(C)CC(Nc2nc(Nc3ccc4c(c3)CCC(=O)N4)ncc2F)CC1(C)C` [II-2], 1400 nM. `CN1CCN(S(=O)(=O)c2ccc(Nc3ncc(F)c(NC4CC(C)(C)N(C)C(C)(C)C4)n3)cc2Cl)CC1` [Compound I-45]: the midpoint of inhibition, the IC50, lay at 2370 nM. `CC1CC(c2ccc(Nc3ncc(F)c(NC4CC(C)(C)N(C)C(C)(C)C4)n3)cc2)CC(C)O1` (stereo not drawn) [Compound I-222]: the IC50 was found to be 1530 nM. Turning to `CN1C(C)(C)CC(Nc2nc(Nc3ccc(-c4cnn(C)c4)cc3)ncc2F)CC1(C)C` [Compound I-144], the IC50 is 1060 nM.

Compound `CN1CCN(c2ccc(Nc3ncc(F)c(NC4CC(C)(C)N(C)C(C)(C)C4)n3)cc2C(N)=O)CC1` [Compound I-53] displayed an IC50 of 1940 nM. For `CC1(C)CC(Nc2nc(Nc3ccc(F)c(-n4cnnn4)c3)ncc2F)CC(C)(C)N1` [Compound I-467], the IC50 came out at 460 nM. The compound `CN1C(C)(C)CC(Nc2nc(Nc3ccc(-c4cc5ccccc5s4)c(Cl)c3)ncc2F)CC1(C)C` [Compound I-156] came in with an IC50 of 2890 nM. In the case of `COc1cc(Nc2ncc(F)c(NC3CCC(C)(C)N(C)C(C)(C)C3)n2)cc(OC)c1OC` (stereo not drawn) [Compound I-266, 5-Fluoro-N2-[3,4,5-trimethoxy]phenyl-N4-(1,2,2,7,7-pentamethylazepan-4-yl)-2,4-pyrimidinediamine], the IC50 stood at 11200 nM. On the same count and under the same terms, to `CN1CCN(c2ccc(Nc3ncc(F)c(N(C)C4CC(C)(C)N(C)C(C)(C)C4)n3)cc2Cl)CC1` [Compound I-60] belongs 524 nM; to `COc1cccc(Nc2ncc(F)c(NC3CCC(C)(C)N(C)C(C)(C)C3)n2)c1` (stereo not drawn) [Compound I-269, 5-Fluoro-N2-[3-methoxy]phenyl-N4-(1,2,2,7,7-pentamethylazepan-4-yl)-2,4-pyrimidinediamine], 8200 nM.

In the case of `CN1C(=O)C(C)(C)S(=O)(=O)c2cc(Nc3ncc(F)c(NC4CC(C)(C)N(C)C(C)(C)C4)n3)ccc21` [II-64], the IC50 came out at 849 nM. The compound `CN1C(C)(C)CC(Nc2nc(Nc3ccc(OC(F)(F)F)c(-c4ccncc4)c3)ncc2F)CC1(C)C` [Compound I-207] registered an IC50 of 402 nM.

Take `CN1C(=O)C2(CCC2)Oc2cc(Nc3ncc(F)c(NC4CC(C)(C)N(C)C(C)(C)C4)n3)ccc21` [II-68]: the IC50 worked out at 261 nM. As to `COc1cc(Nc2ncc(F)c(NC3CC(C)(C)NC(C)(C)C3)n2)cc(-n2cnnn2)c1` [Compound I-388], half-maximal inhibition (IC50) was put at 110 nM.

Turning to `CN1CCN(C(=O)c2ccc(Nc3ncc(F)c(NC4CC(C)(C)N(C)C(C)(C)C4)n3)cc2C(F)(F)F)CC1` [Compound I-64], the IC50 is 2600 nM. Still for that read-out and setting: under `CC1(C)CC(Nc2nc(Nc3cccc(-n4cnnn4)c3)ncc2C(N)=O)CC(C)(C)N1` [Compound I-392] stands 4460 nM. In turn, `CC(=O)N1CCN(c2ccc(Nc3ncc(F)c(NC4CC(C)(C)N(C)C(C)(C)C4)n3)cc2Cl)CC1` [Compound I-67] registered an IC50 of 346 nM.

Values taken from US8993585B2, “Cyclic amine substituted pyrimidinediamines as PKC inhibitors” (Rigel Pharmaceuticals, Inc., priority 2007, dated 2015).
